Source: US20240108658A1, “SYNERGISTIC STEM CELL-BASED MEDICATION FOR TREATING MYOCARDIAL INFARCTION AND RELATED APPLICATION” (SOOCHOW UNIVERSITY, priority 2021, published 2024)

Tests used:
[1] = test system: mouse myocardial infarction modelling (LAD ligation); assay: Ventricular remodeling: HW/BW and Masson staining, myocardial infarction area/heart area; format: in vivo, C57BL/6J mice; settings: MSCs + 2-DG 500 mg/kg/day intraperitoneal; 28 days after surgery; FIG. 2
Source text: The sham-operated group was only passed through the lower part of the LAD without ligation, and the rest were the same as the model group. After ligation, it turned white from the ligation site to the cardiac apex when observed with the naked eyes. The left ventricular tissue was taken for cardiac tissue staining after 1 week and obvious fibrosis was observed, indicating the successful establishment of the myocardial infarction modelling. […] Masson staining: The mice were euthanized 28 days after surgery, and left ventricular tissue was taken for cardiac tissue staining to observe the therapeutic effect. It was carried out according to the routine Masson staining steps, and the observation and photo-taking were carried out under a regular optical microscope. The image analysis software Image J was used to analyze the area of each part and calculate the myocardial infarction area/heart area.

[2] = test system: mouse myocardial infarction modelling (LAD ligation); assay: Cardiac ultrasound testing of cardiac function after myocardial infarction (EF, FS, LVEDD, LVESD); format: in vivo, C57BL/6J mice
Source text: The sham-operated group was only passed through the lower part of the LAD without ligation, and the rest were the same as the model group. After ligation, it turned white from the ligation site to the cardiac apex when observed with the naked eyes. The left ventricular tissue was taken for cardiac tissue staining after 1 week and obvious fibrosis was observed, indicating the successful establishment of the myocardial infarction modelling. […] After anesthesia of mice (same method as before) and depilation, the mice lied on the left side, and the probe of the cardiac ultrasound diagnostic instrument was placed on the anterior wall of the heart, a two-dimensional short-axis view of the left ventricle at the papillary muscle level was taken and the M-mode ultrasonic scanning was recorded. And left ventricular ejection fraction (EF), shortening fraction (FS), left ventricular end diastolic diameter (LVEDD), and left ventricular end systolic diameter (LVESD) were measured for three consecutive cardiac cycles.

transplanted MSCs = assay: Survival of transplanted CM-Dil-stained mesenchymal stem cells (immunofluorescence, flow cytometry); settings: MSCs + 2-DG 500 mg/kg/day intraperitoneal; 3rd day after surgery; FIG. 3

Question: `O=CC[C@@H](O)[C@H](O)[C@H](O)CO` [2-DG, 2-Deoxy-D-glucose] was tested. Which “ventricular remodeling of mice treated with MSCs after myocardial infarction” value [1] did it give?
Answer: improvement of ventricular remodeling

Question: And the “cardiac function of mice treated with MSCs after myocardial infarction” value ([2]; MSCs 5×105 intramyocardial + 2-DG 500 mg/kg/day intraperitoneal, FIG. 1)?
Answer: improvement of cardiac function

Question: And the “function of MSCs in improving myocardial infarction (overall conclusion)” value ([2]; conclusion from Examples 1-3, MSCs + 2-DG)?
Answer: can effectively improve the function of MSCs in improving myocardial infarction

Question: What about the “survival of transplanted MSCs” value (transplanted MSCs) of the same compound?
Answer: significantly increases the survival of transplanted MSCs
